In ChEMBL document CHEMBL1201862, “PubChem BioAssay data set” (2004):
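96-well plates; 48 h exposure; 5 concentrations. Endpoints by linear interpolation between flanking doses. Not reached: highest tested concentration assigned. GI50: concentration for 50% inhibition of growth.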 Calls of active or inactive are those of the source. Cut-off read from the data, not from the text of the source: active = GI50 up to about 1.1 µM and inactive = higher. Starred links: 1 amine or outer side, 2 acyl side, 3 side chain; linkers in the order of their positions; H or OH if unused. Non-standard residues stand in square brackets, D forms with d. Residues, ends and D or L forms follow the SMILES beside them. X41 = CSCCCC(N[*:1])C(=O)[*:2]

Tests used:
Assay in all cases: NCI anticancer screen, dose series, 48 h
A549 = test system: A549
CAKI-1 = test system: CAKI-1
HCT-116 = test system: HCT-116
HL-60 = test system: HL-60
HT-29 = test system: HT-29
IGROV-1 = test system: IGROV-1
KM12 = test system: KM12
MOLT-4 = test system: MOLT-4
NCI-H460 = test system: NCI-H460
OVCAR-3 = test system: OVCAR-3
RPMI-8226 = test system: RPMI-8226
SF-539 = test system: SF-539
SK-OV-3 = test system: SK-OV-3
SNB-19 = test system: SNB-19
SW-620 = test system: SW-620
UACC-257 = test system: UACC-257
DU-145 = test system: DU-145
MCF7 = test system: MCF7
MDA-MB-231 = test system: MDA-MB-231
NCI/ADR-RES = test system: NCI/ADR-RES

Row | SMILES | GI50 (A549) | GI50 (CAKI-1) | GI50 (HCT-116) | GI50 (HL-60) | GI50 (HT-29) | GI50 (IGROV-1) | GI50 (KM12) | GI50 (MOLT-4) | GI50 (NCI-H460) | GI50 (OVCAR-3) | GI50 (RPMI-8226) | GI50 (SF-539) | GI50 (SK-OV-3) | GI50 (SNB-19) | GI50 (SW-620) | GI50 (UACC-257) | GI50 (DU-145) | GI50 (MCF7) | GI50 (MDA-MB-231) | GI50 (NCI/ADR-RES)
1 | C/C(CC(=O)CCC(=O)Nc1cccc(C(F)(F)F)c1)=N\NC(=O)NN | > 100 µM (inactive) | > 100 µM (inactive) | > 100 µM (inactive) | > 100 µM (inactive) | > 100 µM (inactive) | > 100 µM (inactive) | > 100 µM (inactive) | > 100 µM (inactive) | > 100 µM (inactive) | > 100 µM (inactive) | > 100 µM (inactive) | > 100 µM (inactive) | > 100 µM (inactive) | > 100 µM (inactive) | > 100 µM (inactive) | > 100 µM (inactive) | – | – | – | –
2 | CC[As](CC)SCC1OC(OC(C)=O)C(OC(C)=O)C(OC(C)=O)C1OC(C)=O (stereo not given) | 21 µM (inactive) | 2.84 µM (inactive) | 17.1 µM (inactive) | 3.16 µM (inactive) | 21.5 µM (inactive) | 18.3 µM (inactive) | 19.5 µM (inactive) | 16.5 µM (inactive) | 16.8 µM (inactive) | 14.4 µM (inactive) | 6.58 µM (inactive) | 13.1 µM (inactive) | 15.8 µM (inactive) | 17.9 µM (inactive) | 4.74 µM (inactive) | 14.2 µM (inactive) | – | – | – | –
3 | O=C1CCCC/C1=C/C=C/c1ccccc1 | 52.5 µM (inactive) | > 100 µM (inactive) | 43.7 µM (inactive) | 25.9 µM (inactive) | 49.3 µM (inactive) | > 100 µM (inactive) | 42.2 µM (inactive) | 26.9 µM (inactive) | > 100 µM (inactive) | 66.4 µM (inactive) | 32.5 µM (inactive) | > 100 µM (inactive) | 55.7 µM (inactive) | > 100 µM (inactive) | 41.6 µM (inactive) | 62.2 µM (inactive) | 64.6 µM (inactive) | – | – | –
4 | CCOC(=O)c1ccc(/N=C\c2ccc(N(CCC#N)CCC#N)cc2)cc1 | 70 µM (inactive) | > 100 µM (inactive) | 48 µM (inactive) | 80.9 µM (inactive) | > 100 µM (inactive) | 81.8 µM (inactive) | – | 32.4 µM (inactive) | > 100 µM (inactive) | > 100 µM (inactive) | 65.6 µM (inactive) | 45.5 µM (inactive) | > 100 µM (inactive) | > 100 µM (inactive) | 81.5 µM (inactive) | > 100 µM (inactive) | – | – | – | –
5 | COC(=O)C1=C2SCc3cccc(c3)CSC3=C(C(=O)OC)SC(=C(S2)S1)S3 | > 100 µM (inactive) | > 100 µM (inactive) | > 100 µM (inactive) | 25.9 µM (inactive) | – | – | > 100 µM (inactive) | > 100 µM (inactive) | > 100 µM (inactive) | > 100 µM (inactive) | > 100 µM (inactive) | – | > 100 µM (inactive) | > 100 µM (inactive) | > 100 µM (inactive) | > 100 µM (inactive) | > 100 µM (inactive) | > 100 µM (inactive) | 24.7 µM (inactive) | –
6 | Cc1nc(C(N)=S)sc1C(=O)/C=C/c1c(O)ccc2ccccc12 | > 100 µM (inactive) | > 87.5 µM (inactive) | 80.2 µM (inactive) | 22.1 µM (inactive) | > 100 µM (inactive) | > 100 µM (inactive) | 31.3 µM (inactive) | 21.2 µM (inactive) | > 100 µM (inactive) | 36.6 µM (inactive) | 29.4 µM (inactive) | 70.1 µM (inactive) | > 100 µM (inactive) | > 100 µM (inactive) | 39.4 µM (inactive) | > 75.9 µM (inactive) | – | – | – | –
7 | O=C1c2cn[nH]c2N=C(Nc2ccccc2)C1/N=C/c1ccc([N+](=O)[O-])cc1 (stereo not given) | > 10 µM (inactive) | – | > 10 µM (inactive) | > 10 µM (inactive) | > 10 µM (inactive) | – | > 10 µM (inactive) | > 10 µM (inactive) | > 10 µM (inactive) | > 10 µM (inactive) | – | > 10 µM (inactive) | – | > 10 µM (inactive) | – | > 10 µM (inactive) | > 10 µM (inactive) | > 10 µM (inactive) | – | –
8 | CC1C(c2ccccc2O)c2cc3c(cc2OC1N1CCOCC1)OCO3 (stereo not given) | 25.6 µM (inactive) | 25.1 µM (inactive) | 26.4 µM (inactive) | 20 µM (inactive) | 26.9 µM (inactive) | 27.7 µM (inactive) | 27.3 µM (inactive) | 25.8 µM (inactive) | 20.6 µM (inactive) | 22.6 µM (inactive) | 15.5 µM (inactive) | 20.5 µM (inactive) | 40.1 µM (inactive) | 40.7 µM (inactive) | 42.3 µM (inactive) | 19.6 µM (inactive) | 38.5 µM (inactive) | 33 µM (inactive) | 29.9 µM (inactive) | –
9 | Cc1cc2[nH]c3c(C#N)c(-c4ccccc4)c(/C=N/c4ccc(F)cc4)c(=O)n3c2cc1C | 49 µM (inactive) | > 100 µM (inactive) | > 100 µM (inactive) | – | – | > 100 µM (inactive) | 68.5 µM (inactive) | – | > 100 µM (inactive) | 39.4 µM (inactive) | > 100 µM (inactive) | > 100 µM (inactive) | > 100 µM (inactive) | 0.513 µM (active) | 62.5 µM (inactive) | > 100 µM (inactive) | – | 86.9 µM (inactive) | > 100 µM (inactive) | > 100 µM (inactive)
10 | CC(=O)OCC1OC(n2c(=O)n(-c3ccccc3)c(=O)c3ccccc32)C(OC(C)=O)C(OC(C)=O)C1OC(C)=O (stereo not given) | > 100 µM (inactive) | > 100 µM (inactive) | 96.6 µM (inactive) | > 100 µM (inactive) | > 100 µM (inactive) | > 100 µM (inactive) | > 100 µM (inactive) | > 100 µM (inactive) | > 100 µM (inactive) | > 100 µM (inactive) | 73.8 µM (inactive) | > 100 µM (inactive) | > 100 µM (inactive) | > 100 µM (inactive) | > 100 µM (inactive) | > 100 µM (inactive) | – | – | – | –
11 | CC(C)N1[C@@H]2CCCC[C@H]2N(C(C)C)[PH]1=O | > 100 µM (inactive) | > 100 µM (inactive) | > 100 µM (inactive) | – | > 100 µM (inactive) | – | > 100 µM (inactive) | > 100 µM (inactive) | > 100 µM (inactive) | > 100 µM (inactive) | > 100 µM (inactive) | > 100 µM (inactive) | > 100 µM (inactive) | – | > 100 µM (inactive) | > 100 µM (inactive) | > 100 µM (inactive) | > 100 µM (inactive) | – | > 100 µM (inactive)
12 | CC1Cn2c(nc3ccccc32)NC1=O (stereo not given) | > 100 µM (inactive) | > 100 µM (inactive) | > 100 µM (inactive) | > 100 µM (inactive) | > 100 µM (inactive) | > 100 µM (inactive) | > 100 µM (inactive) | > 100 µM (inactive) | > 100 µM (inactive) | > 100 µM (inactive) | > 100 µM (inactive) | > 100 µM (inactive) | > 100 µM (inactive) | > 100 µM (inactive) | > 100 µM (inactive) | > 100 µM (inactive) | – | > 100 µM (inactive) | > 100 µM (inactive) | > 100 µM (inactive)
13 | CC(C)(C)C(=O)N1C(C(=O)O)Cc2ccccc2[C@@H]1Cc1ccccc1 (stereo not given in full) | > 100 µM (inactive) | > 100 µM (inactive) | > 100 µM (inactive) | > 100 µM (inactive) | > 100 µM (inactive) | > 100 µM (inactive) | > 100 µM (inactive) | > 100 µM (inactive) | > 100 µM (inactive) | > 100 µM (inactive) | > 100 µM (inactive) | > 100 µM (inactive) | > 100 µM (inactive) | > 100 µM (inactive) | > 100 µM (inactive) | > 100 µM (inactive) | – | – | – | –
14 | CCCCCCCCCCCCCCCCCCOCC(C[N+]1(C)CCC(O)CC1)OCC (stereo not given) | 5.87 µM (inactive) | 5.65 µM (inactive) | 7.71 µM (inactive) | 1.79 µM (inactive) | 3.37 µM (inactive) | 5.13 µM (inactive) | 1.84 µM (inactive) | 2.87 µM (inactive) | – | 3.85 µM (inactive) | 2.77 µM (inactive) | 14.9 µM (inactive) | 2.92 µM (inactive) | 6.73 µM (inactive) | 5.48 µM (inactive) | 10.9 µM (inactive) | – | – | – | –
15 | CSCCCC(NC(=O)CNC(=O)C1CCCN1C(=O)C(Cc1ccc(O)cc1)NC(=O)C(Cc1ccccc1)NC(=O)C(CCCNC(=N)N)NC(=O)C(CC(=O)O)NC(=O)C1CCCN1C(=O)C(CC(=O)O)NC(=O)C1CCCN1C(=O)C1CCCN1C(=O)CN)C(N)=O (stereo not given) (H-GPPDPDRFYPG[X41]-NH2; configuration not given here) | > 50 µM (inactive) | > 50 µM (inactive) | > 50 µM (inactive) | > 50 µM (inactive) | > 50 µM (inactive) | > 50 µM (inactive) | > 50 µM (inactive) | > 50 µM (inactive) | – | > 50 µM (inactive) | > 50 µM (inactive) | > 50 µM (inactive) | > 50 µM (inactive) | > 50 µM (inactive) | > 50 µM (inactive) | > 50 µM (inactive) | – | > 50 µM (inactive) | > 50 µM (inactive) | > 50 µM (inactive)
16 | O=c1oc2c(O)c(O)c(O)c3c(=O)oc4c(O)c(O)cc1c4c23 [FLAVELLAGIC ACID] | > 100 µM (inactive) | > 100 µM (inactive) | 89.9 µM (inactive) | 36.6 µM (inactive) | 39.5 µM (inactive) | > 100 µM (inactive) | > 100 µM (inactive) | 25.9 µM (inactive) | > 100 µM (inactive) | 61 µM (inactive) | > 100 µM (inactive) | > 100 µM (inactive) | > 100 µM (inactive) | > 100 µM (inactive) | 97.7 µM (inactive) | > 100 µM (inactive) | – | – | – | –
